From paper PMC11973282, “RAS70 peptide targets multiforme glioblastoma by binding to the plasma membrane heat shock protein HSP70” (Frontiers in Oncology, 2025)

What was measured:
[1] = system: C6, GL261, T98G mHsp70-positive tumor cells; test: Confocal microscopy of peptide binding and internalization; assay type: cell-based; conditions: for internalization/accumulation in tumor cells by confocal microscopy: 75 μg/mL, co-incubation 15, 30 and 60 minutes
Description: The binding of the TKD-sCy5, RAS70-sCy5, and NGL-RGD-sCy5 peptides to tumor cells was visualized using the Olympus FV3000 confocal system (Olympus, Japan). The C6, GL261, T98G, ANI, IBD, TMS cells (0.1×10^6 mL^-1 cells) were placed on Nunc™ Lab-Tek™ Chamber Slide System (Thermo Fisher Scientific, USA) and kept overnight. For primary GBM cells the chambers were pre-coated with Matrigel (0.2 mg/mL, Corning, New York, USA) to increase adhesion properties. The cells were incubated with peptides at a concentration of 75 μg/mL for 15, 30, and 60 minutes on ice in the dark. After the incubation cells were washed with PBS, fixed in a 10% formalin solution (Sigma-Aldrich, Burlington, USA), and mounted using a mounting medium containing DAPI (Ibidi, Graefelfing, Germany). Unstained cells were used as controls.
To study the mechanisms of peptide internalization, cells were incubated with peptides for 30 minutes in 37°C in a 5% CO2, washed with PBS, fixed in a 10% formalin solution (Sigma-Aldrich, USA), permeabilized with 0,1% Triton-X100 solution (Servicebio, Wuhan, China), blocked with 5% bovine serum albumin solution and incubated overnight with Alexa Fluor® 488 Anti-Rab5 antibody [EPR21801] (#ab270094, abcam, USA), and with Alexa Fluor® 488 Anti-LAMP1 antibody [EPR24395-31] (#281758, abcam, USA). After 24 hours cells were washed with 0,1% Tween-20 solution (Sigma-Aldrich, Burlington, USA) and mounted using a mounting medium containing DAPI (Ibidi, Graefelfing, Germany). To study the co-localization of the peptide with endolysosomal markers the raw confocal images (n = 10 for each group) were obtained in a 3-channel, 1024 × 1024 pixel format. Colocalization coefficient (τ-Kendall rank correlation value) was computed with the Coloc2 plugin and ImageJ 1.54g ([32]).
The next step was co-incubation of the target peptide RAS70 labeled with fluorescent dye Cy5 with tumor cells for 15, 30 and 60 minutes, followed by confocal microscopy analysis. […] To exclude processes of active internalization of the peptide, co-incubation of the cells on ice at +4°C was performed. […] Next, we evaluated the targeting properties of RAS70 on primary glioblastoma cells (ANI, IBD, TMS) obtained from neuro-oncological patients ([3]) that were additionally characterized for mHsp70, SOX2, NESTIN, GFAP, β3-Tubulin, Ki-67, and CD133 ( Figures 3A–I ).

[2] = system: mHsp70-negative dermal fibroblasts; test: Flow cytometry of FITC-labeled peptide internalization, negative control cells; assay type: cell-based
[3] = system: C6 (rat glioma) cells; test: Flow cytometry of FITC-labeled peptide internalization, 24 h; assay type: cell-based; conditions: 50 μg/mL, M ± SE, 3 independent experiments
Description: (§1) The binding of the TKD-sCy5, RAS70-sCy5, and NGL-RGD-sCy5 peptides were analyzed using a CytoFLEX flow cytometer (Beckman Coulter, USA). A single cell suspension of C6, GL261, T98G, U87, U251, ANI, IBD, TMS (0.15×10^6 cells in mL^-1) were incubated for 30 minutes on ice in the dark with peptides in concentration of 75 μg/mL, and then washed with cold PBS solution. Cells without peptides were used as controls. To evaluate incorporation of the fluorescently-labeled peptides for longer period of co-incubation of 24 h cells (C6, GL261, U87, U251) were treated with FITC-labeled peptides, then washed with PBS and assessed on a CytoFLEX flow cytometer (Beckman Coulter, USA). Following FACS analysis cell pellet was further evaluated employing confocal microscopy Leica TCS SP8 (Leica Microsystems, Germany).
(§2) The incorporation of peptides over longer periods of co-incubation with brain tumor cells was additionally analyzed using a Cytomics FC500 flow cytometer (BeckmanCoulter, USA). Tumor cells (C6, GL261, U87, U251) were incubated with peptides (concentration 50 μg/mL) for 24 hours, washed with PBS. Internalization of FITC-labeled peptides was assessed by determining the mean fluorescence intensity (MFI). According to the study data ( Figure 6A ), it was shown that TKD peptide accumulated in all cell lines – 2120 ± 152 (C6), 2099 ± 107 (GL261), 2145 ± 189 (U87), 2373 ± 201 (U251) compared to the control scramble peptide (NGL) – 378 ± 48 (C6), 344 ± 57 (GL261), 301 ± 66 (U87), 313 ± 56 (U251) (P<0.001). […] Following FACS analysis the cell pellet was collected and evaluated for peptides cell uptake employing confocal microscopy ( Figure 6B ). The obtained microscopy data confirmed higher accumulation of RAS70 peptide in studied cell lines as compared to TKD or scramble peptides.
(§3) Figure 6 Evaluation of the mHsp70-targeting peptides internalization by glioma cells. (A) Flow cytometric evaluation of FITC-labeled peptide accumulation in tumor cell lines (rat glioma C6, mouse glioma GL261, human glioblastoma U87 and U251) after co-incubation for 24 hours. […] (B) Confocal microscopy assessment of FITC-labeled peptide accumulation in tumor cell lines (rat glioma C6, mouse glioma GL261, human glioblastoma U87 and U251) after co-incubation for 24 hours. […] (C) Analysis of the peptides uptake by human U87 glioblastoma cells following co-incubation for 24 hours.

[4] = system: GL261 (mouse glioma) cells; test: as above; assay type: cell-based; conditions: 50 μg/mL, M ± SE, 3 independent experiments
Description: as §1, §2, §3

[5] = system: human glioblastoma U251 cells; test: as above; assay type: cell-based; conditions: 50 μg/mL, M ± SE, 3 independent experiments
Description: as §1, §2, §3

[6] = system: U87 cells (lower chamber; HUVEC and astrocytes barrier); test: Transwell BBB model, peptide passage and accumulation in tumor cells (also with antibody pre-treatment); assay type: in vitro ADME, human; conditions: transwell BBB model: HUVEC (5×10^5) and astrocytes (5×10^5) in upper chamber, U87 (1×10^4) in lower chamber; FITC-labeled peptide; 36 hours; confocal microscopy count; M ± SE, 3 independent experiments
From the text: Fluorescently labeled cells were counted in the lower chamber.
Next, we assessed the mHsp70- and integrin (αvβ3, αvβ5)-mediated penetration of the TKD and RAS70 via the BBB ( Figure 9B ). […] When anti-αvβ3 and anti-αvβ5 mAbs were employed, we detected the decrease of NGL-RGD and RAS70 penetration via the BBB but not the NGL and TKD peptides.

With `CC(C)C[C@H](NC(=O)[C@H](CC(C)C)NC(=O)[C@H](CC(N)=O)NC(=O)[C@H](CC(N)=O)NC(=O)[C@H](CC(=O)O)NC(=O)[C@H](CCCCN)NC(=O)[C@@H](N)[C@@H](C)O)C(=O)NCC(=O)N[C@@H](CCCNC(=N)N)C(=O)N[C@@H](Cc1ccccc1)C(=O)N[C@@H](CCC(=O)O)C(=O)N[C@@H](CC(C)C)C(=O)N[C@@H](CO)C(=O)NCC(=O)NCCC(=O)N[C@@H](CCCNC(=N)N)C(=O)NCC(=O)N[C@@H](CC(=O)O)C(=O)O` [RAS70] the “co-localization with early endosome (Rab5) and lysosome (LAMP-1) markers” value ([1]; 30 minutes at 37°C, confocal microscopy) was “only partially penetrated the cell via the endolysosomal pathway”, the “internalization/accumulation in tumor cells by confocal microscopy” value ([1]; Cy5-labeled peptide) was “higher accumulation of the peptide was detected as compared to TKD or control” and the subcellular localization ([1]; Cy5-labeled peptide, confocal microscopy) was “predominantly localized in the cytoplasm of cells without penetrating into the nuclei”. For the same compound, the “penetration into cells on ice” value ([1]; co-incubation on ice at +4°C to exclude active internalization, data not shown) was “significant decrease in the penetration”, the “accumulation of peptide in mHsp70-negative cells” value [2] was “did not detect the accumulation” and the “mean fluorescence intensity (MFI), internalization of FITC-labeled peptide” value (from here on “mean fluorescence intensity (MFI)”) [3] was 2671 ± 201. For the same compound, the “mean fluorescence intensity (MFI)” value [4] was 3012 ± 182, the “mean fluorescence intensity (MFI)” value [5] was 3678 ± 212 and the “fluorescently labeled tumor cells in the lower chamber” value [6] was 578 ± 67 cells.
In the case of `CC(C)C[C@H](NC(=O)[C@H](CC(C)C)NC(=O)[C@H](CC(N)=O)NC(=O)[C@H](CC(N)=O)NC(=O)[C@H](CC(=O)O)NC(=O)[C@H](CCCCN)NC(=O)[C@@H](N)[C@@H](C)O)C(=O)NCC(=O)N[C@@H](CCCNC(=N)N)C(=O)N[C@@H](Cc1ccccc1)C(=O)N[C@@H](CCC(=O)O)C(=O)N[C@@H](CC(C)C)C(=O)N[C@@H](CO)C(=O)NCC(=O)O` [TKD], the “internalization/accumulation in tumor cells by confocal microscopy” value ([1]; Cy5-labeled peptide) is reported as “internalization of the TKD peptide by tumor cells was noted, reaching maximum absorption of the peptide after 60 minutes”, the “accumulation of peptide in mHsp70-negative cells” value [2] is reported as “did not detect the accumulation” and the “mean fluorescence intensity (MFI)” value [3] is reported as 2120 ± 152. For the same compound, the “mean fluorescence intensity (MFI)” value [4] was 2099 ± 107, the “mean fluorescence intensity (MFI)” value [5] was 2373 ± 201 and the “fluorescently labeled tumor cells in the lower chamber” value [6] was 337 ± 38 cells.
